These results are taken from ChEMBL document CHEMBL4043261, “Cytotoxic properties of the alkaloid rutaecarpine and its oligocyclic derivatives and chemical modifications to enhance water-solubility” (Bioorg Med Chem Lett, 2017).

Values after ≈ are worked out from the molar mass of the structure shown.

Data set [1] in a line: Solubility of the compound in minimal essential medium at 1 to 2 mg after 24 hrs in presence of 10% FCS by HPLC-UV based shake-flask method. Type of data set: physicochemical. The conditions noted are these: BLD = below limit of detection.
Data set [2] has as its system HeLa. Kind of data set: Cytotoxicity against human HeLa cells by MTT assay. The data set is classed as functional, cell-based. A general note: Tetrazolium dyes change colour on reduction, which living cells bring about.
Data set [3] can be described thus: Solubility of the compound in minimal essential medium at 1 to 2 mg after 24 hrs in absence of 10% FCS by HPLC-UV based shake-flask method. The data set is classed as physicochemical. The conditions noted are these: BLD = below limit of detection.
Data set [4] in a line: Dissociation constant, pka of the compound by potentiometric titration method. The data set is classed as physicochemical.
Data set [5] in a line: Aqueous solubility of the compound in phosphate buffered saline at pH 6.8 after 24 hrs by HPLC-UV based shake-flask method. The data set is classed as physicochemical.
Data set [6] is described as follows: Intrinsic solubility of the compound at pH 2 by turbidimetric titration method. Type of data set: physicochemical. The conditions noted are these: buffer, read-out: Intrinsic_solubility.
The nature of data set [7]: Aqueous solubility of the compound in phosphate buffered saline at pH 7.4 after 24 hrs by HPLC-UV based shake-flask method. Type of data set: physicochemical.
Data set [8] in a line: Solubility of the compound in water. Type of data set: physicochemical. The conditions noted are these: buffer.
Data set [9] in a line: Aqueous solubility of the compound in deionized water after 24 hrs by HPLC-UV based shake-flask method. The data set is classed as physicochemical. The conditions noted are these: buffer.
Setting [10] is: phosphate buffered saline, pH 6.8.
The mark [11] stands for this setting: phosphate buffered saline, pH 7.4.

The EC50 is the concentration that produces a half-maximal response. A high value points to a less potent agent. For the molecule `COc1cc2nc3n(c(=O)c2cc1OC)CCc1c-3[nH]c2ccccc12`, the solubility entry in [1] and in [3] was “Bld” in each case. The EC50 in data set [2] is 60.8 µM.
Broadly, the pKa is the negative logarithm of the acid dissociation constant. Lower therefore signals a stronger acid or weaker base. In general, thermodynamic solubility refers to the concentration in solution at equilibrium with solid. `Cl.O=c1c2cc(O)ccc2nc2n1CCc1c-2n(CCCN2CCCCC2)c2ccccc12` displayed a pKa in [4] of 8.8. Further, the solubility (thermodynamic) at 24 h in data set [5] (setting [10]) was found to be 1710 µM; in data set [7] (setting [11]) it was 441 µM. Also, the solubility in data set [6] turned out to be 15.5 µM. The molecule also displayed an EC50 in data set [2] of 15.4 µM.
In the same order, the values of `CCN(CC)CCCn1c2c(c3ccccc31)CCn1c-2nc2ccc(O)cc2c1=O.Cl` are 8.94, 7400 µM, 1900 µM, 53.2 µM and 9.8 µM.
Regarding `O=c1c2cc(O)ccc2nc2n1CCc1ccccc1-2`, the EC50 in data set [2] was determined as 53.9 µM.
With `O=c1c2cc(Cl)ccc2nc2n1CCc1ccccc1-2`, the solubility result in data set [1] and in data set [3] was “Bld” each time. In [2], this molecule yielded an EC50 of 20.6 µM.
For `O=c1c2sc3ccccc3c2nc2n1CCc1c-2[nH]c2ccccc12`, the solubility entry in [1] and in data set [3] was “Bld” each time. In data set [2], this molecule gave a concentration giving a half-maximal response (EC50) of 8.4 µM.
In data set [2], `O=c1c2sc3ncccc3c2nc2n1CCc1c-2[nH]c2ccccc12` registered an EC50 of 22.1 µM.
In turn, `CCN(CC)CCCOc1ccc2nc3n(c(=O)c2c1)CCc1c-3[nH]c2ccccc12.Cl` registered a pKa in data set [4] of 9.29. For the same molecule, the solubility (thermodynamic) at 24 h in data set [5] (setting [10]) was 180 µM; in [7] (setting [11]) it was 45.8 µM. In data set [6], the solubility stood at 0.7 µM. Also, the EC50 in data set [2] was 17.1 µM.
For `O=c1c2ccccc2nc2n1CCc1ccccc1-2`, a half-maximal response in data set [2] (EC50) required 64.2 µM.
The same measure, in the same setting: with `O=c1c2cc(O)ccc2nc2n1CCc1c-2[nH]c2ccccc12` the figure was 11.3 µM.
`Cl.O=c1c2cc(OCCCN3CCCCC3)ccc2nc2n1CCc1c-2[nH]c2ccccc12` showed a pKa in data set [4] of 9.36. Besides, the solubility (thermodynamic) at 24 h in data set [5] (setting [10]) was found to be 21.8 µM; in data set [7] (setting [11]), 5.62 µM. The results for the solubility result in data set [1], in data set [6] and in data set [3] were “Bld”, 0.21 µM and “Bld”, respectively. In data set [2], this molecule had an EC50 of 16.3 µM.
In turn, `O=c1c2cc(Cl)ccc2nc2n1CCc1c-2[nH]c2ccccc12` showed an EC50 in data set [2] of 7.2 µM.
Same read-out and setting: under `C=C1C(=O)O[C@@H]2C[C@@H](C)[C@@H]3C=CC(=O)[C@@]3(C)[C@@H](O)[C@H]12` [HELENALIN] stands 0.7 µM.
In the case of `O=c1c2ccccc2nc2n1CCc1c-2[nH]c2ccccc12` [RUTAECARPINE], the solubility in data set [8] is 0.033 µM (≈ 9.48 ng/mL); in data set [1], “Bld”; in [9] it was 0.0328 µM (≈ 9.42 ng/mL); in [3], “Bld”. Also, the solubility (thermodynamic) at 24 h came to 0.0257 µM (≈ 7.38 ng/mL) in [5] (buffer, pH 6.8, 24 h) and 0.0271 µM (≈ 7.79 ng/mL) in [7] (buffer, pH 7.4, 24 h). Also, in [2], the EC50 came to 26.1 µM.
